Results on 27 molecules are retold here after PubChem BioAssay AID602234 (The Scripps Research Institute Molecular Screening Center, 2012).

The assay is described as follows: SRC3 coactivator transcriptional activity inhibitors, dose response, counter-screen for SRC1 inhibitor project, cell-based, luminescence (AID 602234).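 Further: HEK293 cells co-transfected with pGL4.31 reporter and pBIND-SRC3 fusion vector; potency for inhibition of reporter luminescence with Gossypol as full inhibition.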 The conditions noted are these: transfected HEK293 cells, counter-screen luciferase reporter. (In general: The purpose of a counterscreen is to sort out artefacts and off-target activity.)

Active and inactive are the calls of the source. How the calls were made is not given here.

Turning to `COc1cc(C(=O)NC(=S)NNC(=O)c2cnccn2)cc(OC)c1OC`, the half-inhibitory concentration (IC50) was 3.58 µM.
To `COc1cc2c(cc1OC)C(C)N(C(=O)c1cccc([N+](=O)[O-])c1)CC2` (configuration not stated) belongs 7.27 µM.
To `O=C(CCCOc1ccc(Cl)cc1Cl)N/N=C/c1ccccc1O` belongs 6.32 µM; to `COc1ccc(Cc2nnc(SCc3ccc([N+](=O)[O-])cc3)o2)cc1`, 5.53 µM.
As to `COc1cccc(/C=N/NC(=O)C(=O)Nc2ccccc2OC(F)(F)C(F)F)c1O`, the half-inhibitory concentration (IC50) is 5.65 µM.
As to `COC(=O)c1cccc2c1-c1ccccc1/C2=N/O`, the 50% inhibitory concentration (IC50) was 2.57 µM.
To `Cc1ccc2occ(/C=N/NC(=O)c3ccncc3)c(=O)c2c1` belongs 15.3 µM (inactive); to `CCCCCOc1ccc(/C=C/c2c([N+](=O)[O-])c(=O)n(C)c(=O)n2C)cc1`, 4.32 µM.
For `Cc1ccc(S(=O)(=O)Nc2c(NC3CCCCC3)c3ccccc3oc2=O)c(C)c1` the value was 23.1 µM (inactive); for `Nc1ccc(-c2cc3ccccc3oc2=O)cc1`, 3.62 µM; for `O=C(Nc1nc(-c2ccccn2)cs1)c1cccc(-n2cnnn2)c1`, 21.7 µM (inactive).
To `COc1ccc2c(=O)cc(-c3ccncc3)oc2c1OC` belongs 3.16 µM; to `CCOc1ccc(-c2noc(CCC(=O)O)n2)cc1`, 15.2 µM (inactive); to `Cc1sc2ncnc(N3CCC(C(=O)Nc4cc(S(C)(=O)=O)ccc4Cl)CC3)c2c1C`, 10.1 µM (inactive).
`CCCCC(=O)Nc1cccn2ncnc12`: the IC50 is 10.9 µM (inactive).
For `COc1ccc2c(c1)-c1c(ssc1=S)C(C)(C)N2C(=O)CSC1=NCCS1` the value was 11.2 µM (inactive); for `Cn1nc(C(F)(F)F)c(C#N)c1N1CCN(c2ccccc2)CC1`, 4.13 µM.
To `O=C1NCCc2c1[nH]c1ccc([N+](=O)[O-])cc21` belongs 8.25 µM; to `c1cc2[nH]snc2c2nc(C3CC3)nc12`, 1.2 µM.
To `CCOC(=O)CC(=O)CSc1nccc(-c2cccnc2)n1` belongs 18.4 µM (inactive); to `CCCCC(CC)COCCCN=Cc1c(O)[nH]c(=S)[nH]c1=O` (configuration not stated), 5.74 µM; to `CCc1nc(N)nc(N)c1-c1ccc(Cl)c([N+](=O)[O-])c1`, 0.95 µM.
On to `CC1CCCCN1c1ncnc2ccccc12` (configuration not stated), for which the IC50 was 8.39 µM.
To `CCc1ccc(/C=C2\SC(=S)N(CCCC(=O)NCCCN3CCOCC3)C2=O)cc1` belongs 3.28 µM; to `Cc1c(C(=O)N/N=C/C(C)C)[nH]c2ccc([N+](=O)[O-])cc12`, 17 µM (inactive); to `CC(=O)C1=C(C)NC2=C(C(=O)CC(C)(C)C2)C1C` (configuration not stated), 7.94 µM.
To `Cc1ccc(O)c(Nc2ncnc3ccc([N+](=O)[O-])cc23)c1` belongs 3.59 µM.

In general, IC50 refers to the midpoint of a concentration-inhibition curve.
